According to BigSolDB 2.1:

C=NCC#N
solubility (mole fraction)
Conditions	278.15 K	283.15 K	288.15 K	293.15 K	298.15 K	303.15 K	308.15 K	313.15 K	318.15 K	323.15 K
in ethanol	0.00175	0.00213	0.00253	0.00303	0.00357	0.00424	0.00501	0.00595	0.00695	0.00814
in methanol	0.00436	0.00516	0.00624	0.00747	0.00894	0.0107	0.0125	0.0145	0.0169	0.0196
in n-butanol	0.000479	0.000578	0.000686	0.000819	0.000985	0.00115	0.00139	0.00162	0.00191	0.00224
in n-propanol	0.00099	0.00125	0.00151	0.00183	0.00222	0.00266	0.00315	0.0037	0.00427	0.00499
in water	0.00083	0.000998	0.00119	0.00143	0.00171	0.00198	0.00235	0.00274	0.0032	0.00371
